Values belong to the compound of their own block, whether it stands above or below them. Activity calls are given as the source filed them. No cut-off for these calls is given here.
Experiments:
[1] = system: MCF7; experiment: Antiproliferative activity against human MCF7 cells expressing estrogen receptor assessed as cell growth inhibition 50 uM after 72 hrs by WST-1 assay relative to control; format: functional
[2] = system: MCF7; experiment: Antiproliferative activity against human MCF7 cells expressing estrogen receptor after 72 hrs by WST-1 assay; format: functional, cell-based
[3] = system: MCF7; experiment: Antiproliferative activity against human MCF7 cells expressing estrogen receptor assessed as cell growth inhibition 5 uM after 72 hrs by WST-1 assay relative to control; format: functional
[4] = system: MCF7; experiment: Antiproliferative activity against human MCF7 cells expressing estrogen receptor at 10 uM after 72 hrs by WST-1 assay; format: functional; conditions: MCF7, 72 h
[5] = system: MCF7; experiment: Cell cycle arrest in human MCF7 cells expressing estrogen receptor at 10^-5 M after 9 to 48 hrs using propidium iodide staining by FACS analysis; format: functional, cell-based
[6] = target: RAC-alpha serine/threonine-protein kinase (Homo sapiens) (UniProt P31749); experiment: Activation of Akt in human MCF7 cells expressing estrogen receptor at 10^-5 M after 9 hrs by Western blotting; format: functional, cell-based
Sequence of RAC-alpha serine/threonine-protein kinase (Homo sapiens) (P31749 whole entry): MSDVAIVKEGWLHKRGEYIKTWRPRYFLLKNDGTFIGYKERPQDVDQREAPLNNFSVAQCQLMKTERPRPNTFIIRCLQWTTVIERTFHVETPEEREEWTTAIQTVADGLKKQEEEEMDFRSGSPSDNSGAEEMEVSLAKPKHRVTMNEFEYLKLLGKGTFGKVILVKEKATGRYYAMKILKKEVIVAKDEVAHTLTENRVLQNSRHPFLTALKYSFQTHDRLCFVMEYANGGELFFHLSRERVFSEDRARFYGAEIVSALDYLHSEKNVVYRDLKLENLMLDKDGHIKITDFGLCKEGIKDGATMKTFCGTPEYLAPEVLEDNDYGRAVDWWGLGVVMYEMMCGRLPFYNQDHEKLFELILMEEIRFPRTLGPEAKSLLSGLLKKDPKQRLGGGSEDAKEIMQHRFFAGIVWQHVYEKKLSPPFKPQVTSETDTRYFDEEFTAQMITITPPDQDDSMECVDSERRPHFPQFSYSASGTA

[7] = target: RAC-alpha serine/threonine-protein kinase (Homo sapiens) (UniProt P31749); experiment: Activation of Akt in human MCF7 cells expressing estrogen receptor at 10^-5 M after 4 hrs by Western blotting; format: functional, cell-based
[8] = system: MCF7; experiment: Antiproliferative activity against human MCF7 cells expressing estrogen receptor after 72 hrs by MTT assay; format: functional, cell-based
[9] = system: MCF7; experiment: Induction of apoptosis in human MCF7 cells expressing estrogen receptor assessed as increase of PARP cleavage at 10^-5 M after 4 hrs by Western blotting; format: functional, cell-based
[10] = system: MCF7; experiment: Induction of apoptosis in human MCF7 cells expressing estrogen receptor assessed as increase of PARP cleavage at 10^-5 M after 9 hrs by Western blotting; format: functional, cell-based

SMILES: CC(/C=C/C=C(\C)c1ccc2ccc3cccc4ccc1c2c34)=C\C(=O)O
inhibition (INH) [1]: 8%

SMILES: COc1cc(C)c(/C=C/C(C)=C/C=C/C(C)=C/C(=O)O)c(C)c1C
inhibition [2]: Dose-dependent effect

SMILES: CC(/C=C/c1ccc2ccccc2c1)=C\C=C\C(C)=C\C(=O)O
inhibition (INH) [1]: -25%

SMILES: CC(/C=C/c1ccc(C(F)(F)F)cc1C(F)(F)F)=C\C=C\C(C)=C\C(=O)O
inhibition (INH) [3]: 13.9%
inhibition (INH) [1]: 6%

SMILES: COc1ccc(/C=C/C(C)=C/C=C/C(C)=C/C(=O)O)cc1OC
inhibition (INH) [1]: -30%

SMILES: COc1ccc2cc(/C(C)=C/C=C/C(C)=C/C(=O)O)ccc2c1
inhibition (INH) [1]: -32%

SMILES: CC(/C=C/c1ccc(N(C)C)cc1)=C\C=C\C(C)=C\C(=O)O
inhibition (INH) [1]: 5%

Activity [6]: inactive
Activity [7]: inactive
SMILES: COc1cc(OC)c(/C=C/C(C)=C/C=C/C(C)=C/C(=O)O)c(OC)c1
inhibition at 10 µM [4]: 52%
Activity [5]: inactive
inhibition (INH) [1]: -53%
inhibition [2]: Active
inhibition [8]: Active
Activity [9]: inactive
Activity [10]: inactive

SMILES: CN[C@@H]1C[C@H]2O[C@@](C)([C@@H]1OC)n1c3ccccc3c3c4c(c5c6ccccc6n2c5c31)C(=O)NC4
Activity [9]: Active
Activity [10]: Active

SMILES: CC(/C=C/C=C(\C)c1ccc2cc3ccccc3cc2c1)=C\C(=O)O
inhibition (INH) [1]: 15%

SMILES: CC1=C(/C=C/C(C)=C/C=C/C(C)=C/C(=O)O)C(C)(C)CCC1 [TRETINOIN]
inhibition (INH) [1]: 3.1%

SMILES: CC(/C=C/c1cc(F)c(F)cc1F)=C\C=C\C(C)=C\C(=O)O
inhibition (INH) [3]: 2%
inhibition (INH) [1]: 10%

SMILES: CC(/C=C/c1ccc2ccc3cccc4ccc1c2c34)=C\C=C\C(C)=C\C(=O)O
inhibition (INH) [3]: 5.2%
inhibition (INH) [1]: 4%

Reference: ChEMBL document CHEMBL1667765, “Syntheses, antiproliferative activity and theoretical characterization of acitretin-type retinoids with changes in the lipophilic part” (2011)
